The results in this text go back to patent publication US6060504A, “N-methyl-N-[(1S)-1-phenyl-2-(3S)-hydroxypyrrolidin-1-yl)ethyl]-2 -2-diphenylacetamide” (priority 1995, dated 2000).

Structures are written as SMILES. Counter-ions that a name gives are not always drawn. Like-named read-outs stand apart in the source and are kept apart here.

The format of data set [1] is physicochemical. The protocol:
In the case of these two types, not only their melting behavior differs but also their storage stabilities. […] During DSC determination (DSC=Differential Scanning Calorimetry)of the crystal form of type II, on slow heating above the melting point at approximately 200° C. the crystal type IV which melts at approximately 220-226° C. crystallizes out. Crystal type IV is also detected when a melt of type II (just above 200° C.) is suddenly cooled and stored at room temperature for a period of 12 to 16 hours. […] In contrast to this, however, by seeding with seed crystals of type […] the crystal form IV is especially obtained. Additionally, the solubility of the crystal type IV in aqueous solution is lower than that of type II.

The nature of another data set: Solubility in methanol. In kind it is physicochemical. The conditions noted are these: organic solvent or mixture, at 20° C.
The nature of a further data set: Solubility in water. The conditions noted are these: at 20° C. The format is physicochemical.
The nature of the next data set: pKa. The format is physicochemical.
Data set [2] in a line: Solubility of crystal types in aqueous solution. The format is physicochemical.
Data set [3] can be described thus: pharmaceutical activity of crystal forms. In kind it is in vivo.
In data set [4] the test system is inflammation-related hyperalgesias. Briefly: analgesic action / inflammation-related hyperalgesias. The following applies: in vivo.
The subject of the next data set is kappa-receptors. Briefly: binding to kappa-receptors.
The test system of the next data set is intestinal motility. Briefly: inflammatory bowel disorders / intestinal motility. The following applies: inflammatory bowel disorder. The format is in vivo.
Another data set relates to allergic skin reactions. The experiment in a line: treatment of allergies to the sun. The format is in vivo.
Data set [5] in a line: blood-brain barrier passage. The following applies: due to its structure.
The subject of another data set is writhing (pain). The experiment in a line: writhing test. In kind it is in vivo. The following applies: mice or rats. From the text: Experiments have shown that the compound according to the invention is active in the "writhing test" on mice or rats (method cf. Siegmund et al., Proc. Soc. Exp. Biol. 95, (1957), 729-731).
(In general: In writhing tests, fewer writhes than in controls are read as antinociception.)

A further data set can be described thus: side effects. The conditions noted are these: in vivo.
Data set [6] deals with rheumatic disorders and back conditions. The experiment in a line: treatment of rheumatic disorders and back conditions. In kind it is in vivo.
A short description of data set [7]: anti-inflammatory, diuretic, anticonvulsive and neuroprotective actions (familiar methods). The following applies: in vivo.
A further data set relates to physical dependence. The experiment in a line: physical dependence / dependence potential. The format is in vivo.
The next data set deals with burns. The experiment in a line: treatment of burns and sunburn. The format is in vivo. The conditions noted are these: heat, flames, severe sunburn.
Data set [8] deals with carrageenan-induced hyperalgesia. Briefly: carrageenan-induced hyperalgesia model. In kind it is in vivo. The following applies: rats.
In the next data set the test system is neurodermatitis. Briefly: treatment of neurodermatitis. In kind it is in vivo.
Setting [9] is: listed as N-methyl-N-[(1S)-1-phenyl-2-((3S)-3-hydroxypyrrolidin-1-yl)ethyl]-2,2-diphenylac.

Usually solubility stands for the concentration that dissolves in the medium under given conditions. In general, pKa refers to the pH at which an ionisable group is half protonated. With `CN(C(=O)C(c1ccccc1)c1ccccc1)[C@H](CN1CC[C@H](O)C1)c1ccccc1` [Comparison Example, N-methyl-N-[(1S)-1-phenyl-2-((3S)-3-hydroxypyrrolidin-1-yl)ethyl]-2.2-diphenylacetamide hydrochloride], the “stability of crystal form” value in data set [1] is recorded as “metastable”. Besides, the “storage at high humidity” value in data set [1] (atmospheric humidity approximately 73% to 95%) is “A form designated as type III is obtained”. Further, in [1] (drying oven at 170° C.), the “storage at 170° C.” value is on record as “a partial conversion into type IV was detected”. Besides, the “seven months' storage” value in data set [1] (seven months, room temperature) is “a start of conversion to the thermostable crystal modification IV”. The solubility in the data set “Solubility in methanol” amounted to 63.1 mg/mL; in “Solubility in water”, 11.6 mg/mL. The pKa in the data set “pKa” (read-out: pKa) came to 7.4.
For the molecule `CN(C(=O)C(c1ccccc1)c1ccccc1)[C@H](CN1CC[C@H](O)C1)c1ccccc1.Cl` [Example 1, N-methyl-N-[(1S)-1-phenyl-2-((3S)-3-hydroxypyrrolidin-1-yl)ethyl]-2,2-diphenylacetamide hydrochloride], the solubility was 42.6 mg/mL in “Solubility in methanol” and 7.6 mg/mL in the data set “Solubility in water”. Besides, the “solubility of crystal type IV relative to the solubility of type II” value in data set [2] was 45% to 70. Besides, in “pKa”, the pKa is 7.4.
Take `CN(C(=O)C(c1ccccc1)c1ccccc1)[C@H](CN1CC[C@H](O)C1)c1ccccc1.Cl` [N-methyl-N-[(1S)-1-phenyl-2-((3S)-3-hydroxypyrrolidin-1-yl)ethyl]-2,2-diphenylacetamide hydrochloride]: the “effectiveness as medicament in all indication areas” value in data set [3] (all types of preparation forms) is given as “particularly effective”.
For the molecule `CN(C(=O)C(c1ccccc1)c1ccccc1)[C@H](CN1CC[C@H](O)C1)c1ccccc1` [compound according to the invention, N-methyl-N-[(1S)-1-phenyl-2-((3S)-3-hydroxypyrrolidin-1-yl)ethyl]-2,2-diphenylacetamide], in data set [4], the analgesic actions result was “particularly good analgesic actions” and the “antagonism of inflammation-related hyperalgesias” value is on record as “antagonize”. Besides, the affinity to kappa-receptors entry in the data set with kappa-receptors is “high affinity”. Further, the intestinal motility normalization entry with intestinal motility is “suitable for normalizing disorders of the intestinal motility”. Also, the intestinal motility normalization result with intestinal motility (setting [9]) was “normalizes the motility of the intestine or sets it in motion again”. In the data set on allergic skin reactions, the allergic skin reactions result is reported as “allergic skin reactions rapidly fade” and the “itching, allergies to the sun” value is reported as “rapidly subsides”. For the same molecule, the “dependence of pharmaceutical activity on crystal form” value in [3] (in vivo) is recorded as “relatively independent of the crystal form”. Moreover, the blood-brain barrier passage entry in data set [5] was “cannot pass through the blood-brain barrier”. Also, the “activity in the writhing test” value with writhing (pain) was “active”. The side effects result in the data set “side effects” is recorded as “no side effects have been found which would restrict the use”. Moreover, in the data set “side effects” (setting [9]), the side effects entry is reported as “without causing noticeable side effects”. Besides, the “efficacy in rheumatic disorders and back conditions” value in [6] (in vivo) was “particularly effective”. Also, the “normal motility of the gastrointestinal tract” value in data set [6] (rheumatic disorders and back conditions) was “not adversely affected”. For the same molecule, in [7], the anti-inflammatory action result is “pronounced”, the anticonvulsive action result is “pronounced”, the diuretic action entry is “pronounced” and the neuroprotective action result was “pronounced”. Further, the dependence potential result in the data set on physical dependence (attributed to no blood-brain barrier passage) is on record as “no dependence potential”. Further, in the data set with physical dependence (in vivo), the “tendency to physical dependence” value is “no or only a small tendency to physical dependence”. Moreover, the treatment of burns result in the data set on burns is “particularly suitable in the treatment of burns”. Besides, the “action in carrageenan-induced hyperalgesia model” value in [8] was “Particularly strong actions”. Further, in the data set with neurodermatitis, the “inflammatory reactions, neurodermatitis” value was “favorably influenced” and the “itching, neurodermatitis” value is “the itching of the skin in this disorder subsides”.
With `CN(C(=O)C(c1ccccc1)c1ccccc1)[C@H](CN1CC[C@H](O)C1)c1ccccc1` [type I, N-methyl-N-[(1S)-1-phenyl-2-((3S)-3-hydroxypyrrolidin-1-yl)ethyl]-2,2-diphenylacetamide], in [1] (slow heating releases solvent), the “conversion of solvate type I” value is listed as “readily converted into another crystal type”.
